From ChEMBL document CHEMBL3639005, “SGLT-2 inhibitors, methods of making them, and uses thereof” (2013)

Columns and labels:
[1] = target: T1, Sodium/glucose cotransporter 1 (Homo sapiens, UniProt P13866); experiment: (§1) In Vitro Assay: The inhibitory activity of the compounds of this invention against the SGLT-1 or SGLT-2 transporters.
T1 sequence (P13866 whole entry): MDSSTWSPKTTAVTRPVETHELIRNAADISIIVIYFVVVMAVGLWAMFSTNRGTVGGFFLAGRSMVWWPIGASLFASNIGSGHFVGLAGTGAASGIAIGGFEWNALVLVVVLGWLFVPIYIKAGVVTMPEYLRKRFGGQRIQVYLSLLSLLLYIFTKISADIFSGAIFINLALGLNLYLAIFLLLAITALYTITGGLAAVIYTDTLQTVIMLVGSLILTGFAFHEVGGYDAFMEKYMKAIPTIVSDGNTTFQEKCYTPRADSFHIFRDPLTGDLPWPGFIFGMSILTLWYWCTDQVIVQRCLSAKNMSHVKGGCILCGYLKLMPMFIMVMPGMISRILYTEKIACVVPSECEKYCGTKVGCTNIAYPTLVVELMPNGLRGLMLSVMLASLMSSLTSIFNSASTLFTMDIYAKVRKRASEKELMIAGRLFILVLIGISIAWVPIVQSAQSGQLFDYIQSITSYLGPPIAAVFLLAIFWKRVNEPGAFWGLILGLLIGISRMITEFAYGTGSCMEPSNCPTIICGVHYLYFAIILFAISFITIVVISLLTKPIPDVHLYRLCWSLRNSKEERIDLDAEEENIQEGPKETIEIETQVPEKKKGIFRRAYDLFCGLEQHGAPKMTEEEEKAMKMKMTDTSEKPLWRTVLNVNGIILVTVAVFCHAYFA

[2] = target: T2, Sodium/glucose cotransporter 2 (Homo sapiens, UniProt P31639); experiment: as §1
T2 sequence (P31639 whole entry): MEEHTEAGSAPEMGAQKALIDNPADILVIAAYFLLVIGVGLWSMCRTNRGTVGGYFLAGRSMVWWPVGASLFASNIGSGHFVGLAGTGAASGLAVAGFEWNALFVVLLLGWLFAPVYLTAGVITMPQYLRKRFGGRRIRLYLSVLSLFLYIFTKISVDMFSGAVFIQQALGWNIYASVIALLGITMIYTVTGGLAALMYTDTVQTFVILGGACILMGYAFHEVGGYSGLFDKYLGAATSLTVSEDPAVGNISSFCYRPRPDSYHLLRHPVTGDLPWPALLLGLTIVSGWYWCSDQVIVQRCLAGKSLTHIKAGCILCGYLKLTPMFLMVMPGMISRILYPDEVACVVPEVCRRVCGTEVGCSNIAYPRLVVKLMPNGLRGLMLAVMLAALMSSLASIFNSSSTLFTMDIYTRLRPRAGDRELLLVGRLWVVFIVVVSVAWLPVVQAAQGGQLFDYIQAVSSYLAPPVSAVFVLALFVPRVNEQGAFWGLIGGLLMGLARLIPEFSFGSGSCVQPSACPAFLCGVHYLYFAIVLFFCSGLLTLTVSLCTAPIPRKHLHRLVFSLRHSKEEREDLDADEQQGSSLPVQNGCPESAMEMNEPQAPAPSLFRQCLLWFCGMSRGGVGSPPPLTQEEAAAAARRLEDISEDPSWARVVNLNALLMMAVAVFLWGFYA

| SMILES | IC50 [1] [nM] | IC50 [2] [nM] |
| --- | --- | --- |
| O=c1n(Cc2cc([C@@H]3O[C@H](CO)[C@@H](O)[C@H](O)[C@H]3O)ccc2Cl)nc2cc(Cl)ccn12 | > 90000 | 91 |
| N#CC1(c2ccc3nn(Cc4cc([C@@H]5O[C@H](CO)[C@@H](O)[C@H](O)[C@H]5O)ccc4Cl)c(=O)n3c2)CC1 | > 90000 | 223 |
